System: human platelet-poor plasma
Assay: Recalcification time assay
Format: biochemical
Method: Figure 5 Effect of PA (A), IVA (B), and 4-HA (C) on recalcification time and plasma density. Human platelet-poor plasma was mixed with PA, IVA, and 4-HA dissolved in DMSO in 96-well plates and incubated for 10 min at 37 °C. Thereafter, 100 mM pre-warmed CaCl2 was added to the mixture and absorbance was taken every 60 s at 650 nm for 30 min in a microplate reader. The plasma density was presented as the optical density at 650 nm after 30 min. The half time (s) was presented as reaching a half-maximum absorbance value. NC1, plasma only; NC2, plasma treated with CaCl2; PC, positive control group (1 U heparin); PA1–20, 1–20 μg of PA treated; IVA1–20, 1–20 μg of IVA treated; 4-HA1–20, 1–20 μg of 4-HA treated.
Recalcification time was measured in a 96-well plate, according to a previously described method, with slight modifications. First, 50 μL of human platelet-poor plasma was mixed with 50 μL of the compounds, vehicle as NC2, or 1 U heparin as PC, and incubated at 37 °C for 10 min. Thereafter, 100 mM pre-warmed CaCl2 was added to the mixture and absorbance was measured at 650 nm every 1 min for 30 min using a microplate reader. The plasma density was presented as the absorbance at 650 nm after 30 min. The half time was presented as reaching a half-maximum absorbance value.

## heparin [reference compound]
1U
  plasma coagulation for 1800 s: completely delayed
1 U heparin, 650 nm after 30 min, NC2 0.2094 ± 0.0305
  Absorbance after Reaction: 0.0184 ± 0.0016

From PMC9181887, “In Vitro Antithrombotic, Hematological Toxicity, and Inhibitor Studies of Protocatechuic, Isovanillic, and p-Hydroxybenzoic Acids from Maclura tricuspidata (Carr.) Bur” (Molecules, 2022)
